The source of these data is US20150025077A1 (COYOTE PHARMACEUTICALS, INC., priority 2012, published 2015).

Series [1] has as its system Rat primary motor neurons. The experiment in a line: Axon extension of rat primary motor neurons. The format is cell-based. Particulars: 72 hrs; read-out: EC50 (cells extending axons). As to the method:
Rat primary motor neurons were isolated from embryonic spinal cords in accordance with the method of Henderson et al.; J Cohen and G P Wilkin (ed.), Neural Cell Culture, (1995) p69-81 which is herein incorporated by reference in its entirety. Briefly, spinal cords were dissected from day 15 embryo (E15) and incubated in a trypsin solution, and followed by DNase treatment to release spinal cord cells from tissue fragments. The cell suspension was centrifuged to remove tissue fragments. Then motor neurons were enriched by density gradient centrifugation.
Motor neurons were cultured in serum-free neurobasal medium containing insulin, forskolin, 3-isobutyl-1-methylxanthine, neurotrophic factors, Bovine serum albumin, selenium, transferrin, putrescine, progesterone and B27 supplement in tissue culture plate coated with poly-ornithine and laminin.
Rat primary motor neurons were prepared and cultured as described in Example 13. […] The cells extending axons were counted in five different fields for each treatment after 72 hrs. Percentage of positive cells relative to total cells in the same magnification field was calculated and the results were expressed as means+/−standard deviations, n=5.

For series [2], the system named is Mouse Neuro2A neuroblastoma cells. Put plainly: Neuro2A cells with neurites after GGTI-298 (Example 16). The format is cell-based. Particulars: 10 μM. The procedure:
Mouse Neuro2A neuroblastoma cells were cultured in DMEM supplemented with 10% FBS for 24 hrs. […] Then differentiation was induced by retinoic acid in DMEM supplemented with 2% FBS. The cell culture was incubated with a Geranylgeranyl Transferase inhibitor, GGTI-298. After 24 hrs incubation, cells with neurites were counted.

A further series deals with Neuro2A cells. Put plainly: Neuro2A cells that extended neurites, with GGTI-298 (Example 18). The series is classed as cell-based. The note with it: 0.1-1 μM; vehicle 0.0-0.20. The source says:
After differentiation was induced, cells that extended neurites were counted.

The next series has as its system Sprague-Dawley rats. The experiment in a line: Kainic acid induced neurodegeneration and seizure behaviors in rats (Examples 20, 21). The series is classed as in vivo, rat. The note with it: oral. From the text: Seizure behaviors were observed and scored (Ref. R. J. Racine, Modification of seizure activity by electrical stimulation: II. Motor seizure, Electroencephalogr. Clin. […] Modifications were made for the methods). Brain tissues of rats were sectioned on histology slides, and neurons in hippocampus tissues were stained by Nissl. Neurons in dentate gyrus tissues damaged by Kainic acid were quantified. The Memantine composition used in comparison refers to a commercially available NMDA receptor […]. […] Seizure behaviors were observed and scored (Ref. R. J. Racine, Modification of seizure activity by electrical stimulation: II. Motor seizure, Electroencephalogr. Clin. […] Modifications were made for the methods). Brain tissues of rats were sectioned on histology slides, and neurons in hippocampus tissues were stained by Nissl. Neurons damaged by Kainic acid and behavior scores were quantified.

The next series has as its system HSP70. Put plainly: HSP70 expression in neuro2A cells, western blot. The note with it: for HSP70 western signal (absence of compounds = 1.00): 48 hours, GGTI-298. The series is classed as cell-based, mouse. The procedure: Differentiation was induced and cells incubated with geranylgeranyl transferase I inhibitor, GGTI-298. Cells were harvested and lysates were prepared and analyzed by western blot for HSP70 and HSP90. Western signals in the absence of the compounds were normalized as 1.00.
Background: A western blot detects proteins with antibodies after separation by electrophoresis.

Series [3] deals with Murine neuro2A neuroblastoma cells. The experiment in a line: Neurite outgrowth of neuro2A cells with GGTI-298 (Example 30). The series is classed as cell-based, mouse. Particulars: for Protection % / Median Counts (cells with neurite outgrowth) / ratio of counts relative to no inhibition: CNS-102/CNS-103 experiment; for Median Counts (cells with neurite outgrowth): no inhibition 60.3, PBS 18.5. As to the method:
Differentiation was induced and cells incubated with geranylgeranyl transferase I inhibitor, GGTI-298. After 24 h digital images were taken and neurite outgrowth was quantified. The comparisons of the neuroprotective effect of these three compounds are shown below.
The estimated mean log10 counts, from five replicate wells for each treatment group were calculated by PROC GLM in SAS assuming a pooled estimate of variation.
The estimated mean log 10 counts from five replicate wells for each treatment group were calculated by PROC GLM in SAS assuming a pooled estimate of variation.
Differences in mean log(counts) between treatments for each concentration were calculated using PROC GLM in SAS. The p-value given is for the comparison of the estimated difference to zero, the expected difference value for no treatment effect. The anti-log of the differences represent the estimated ratio of counts (relative effect on inhibition) and are tabulated below along with the lower and upper 95% confidence intervals.

Another series concerns Rap1. The experiment in a line: Prenylation of Rap1 in Neuro2A cells, western blotting. The series is classed as cell-based, mouse. Particulars: 100 nM; with GGTI-298; percentage of control (GGTI only). In a few lines: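 Mouse Neuro2A cells in DMEM/10% FBS were treated with compound for 24 h, then GGTI-298 was added for a further 24 h. Un-prenylated and total Rap1 were quantified by western blot, normalized to GAPDH; the un-prenylated/total ratio was expressed as percent of GGTI-only control, mean of two biological repeats.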

Series [4] deals with Mouse neuroblastoma Neuro2A cells. Put plainly: Rescue of amyloid-beta oligomer induced cytotoxicity in Neuro 2a cells (CellTiter-Glo). The note with it: mouse/rat NG108-15, N2a, A-beta (O) together with compound 48 hr, normalized to A-beta (O) treated only, read-out: % viability vs. untreated. The series is classed as cell-based. The procedure:
Preparation of amyloid-beta oligomer (A-beta (O)): Synthetic wild type A-beta (1-42) was purchased from American Peptide, and first dissolved with hexafluoroisopropanol (HFIP), then dried in the blowing tissue culture hood overnight to form a film in the eppendorf tube. The A-beta peptide film was first resuspended with DMSO to a concentration of 5 mM, further diluted with DMEM containing N2 supplement (Invitrogen) to achieve a concentration of 100 μM, and then sonicated in room temperature water bath for 10 minutes. The 100 μM peptide solution was then incubated at 4° C. for 24 hr and thoroughly vortexed before applied to cells.
Mouse neuroblastoma Neuro2A cells were plated in 96-well plates and cultured in DMEM supplemented with 10% FBS for 24 hr. […] At the end of incubation, cells were harvested and subjected to viability assay using CellTiter-Glo Luminescent Cell Viability Assay Kit (Promega). […] Compound ID numbers in table refer to structures in Table 1 and Table 2.
On the technique in general: In ATP-based viability assays light output follows the ATP content of the culture.

Series [5] can be described thus: In-vivo PK of GGA oral formulations in rat. The note with it: plasma; for bioavailability: read-out: oral bioavailability (% F); for half-life: read-out: t½ (converted). The procedure:
PK Parameters were calculated from noncompartmental analysis (NCA) model using WinNonlin software and the linear/log trapezoidal method.
Parameters that requires 1z: Terminal Half-Life (t1/2)=ln(2)/lz. Calculated using Lambda_z method to find best fit. If necessary, the concentration-time points were manually selected for use in the calculation. Bolded-italicized concentrations indicate points used for calculation.

The nature of series [6]: Kp (ratio of AUCbrain to AUCplasma) of GGA in rat. The note with it: brain, 4 h, 6 h, 8 h, and 10 h time points. The series is classed as in vivo.
For series [7] the following is noted: Katsuno et al., Proc. Natl. Acad. Sci. USA 2003; cited from earlier work.
The mark [8] stands for this setting: GGA in 3% Hydroxypropyl Cellulose (Mn=10,262) aqueous suspension.
The mark [9] stands for this setting: GGA in 3% Hydroxypropyl Cellulose (Mn=100,000) aqueous suspension.
[10] abbreviates: GGA in 5% Gum Arabic aqueous suspension.
Where [11] appears, read: GGA in 5% Gum Arabic+3% Hydroxypropyl Cellulose (Mn=10,262) aqueous suspension.
The mark [12] stands for this setting: GGA in 5% Gum Arabic+3% Hydroxypropyl Cellulose (Mn=100,000) aqueous suspension.

Like-named read-outs stand apart in the source and are kept apart here.

`CC(=O)CC/C=C(/C)CC/C=C(\C)CC/C=C(\C)CCC=C(C)C` [CNS-103]: the concentration giving a half-maximal response (EC50) (usually the concentration at which the effect is half-maximal) in [1] came to 9.49 nM. Also, the “Mean of cell numbers (cells with neurites)” value in series [2] turned out to be 0.195 Arbitrary units. Further, the “Mean of cell numbers (cells that extended neurites)” value with Neuro2A cells is reported as 0.20-0.45 Arbitrary units. Also, the “Mean of Hippocampus CA3 Neurons Damaged” value with Sprague-Dawley rats (12 mg/Kg rat) came to 8.16 Arbitrary units; with Sprague-Dawley rats (25 mg/Kg rat) it was 10.64 Arbitrary units. Further, the “HSP70 western signal (absence of compounds = 1.00)” value was found to be 1.00 in the series with HSP70 (100 nM), 1.07 with HSP70 (1 μM) and 0.99 with HSP70 (10 μM). The “induction of HSP70 expression” value with HSP70 (various concentrations) was “failed to induce expression of HSP70”. The Protection % was 19.6% in series [3] (10 nM), 25.8% in [3] (100 nM), 24.4% in [3] (1000 nM) and −5.3% in series [3] (10000 nM). Further, the “Median Counts (cells with neurite outgrowth)” value in [3] (10 nM) was 26.7; in series [3] (100 nM), 29.3; in series [3] (1000 nM), 28.7; in series [3] (10000 nM), 16.3. The “ratio of counts relative to no inhibition” value is recorded as 0.443 in series [3] (10 nM), 0.486 in series [3] (100 nM), 0.476 in series [3] (1000 nM) and 0.270 in series [3] (10000 nM). This compound also gave a maximum protection in [3] (CNS-102/CNS-103 experiment (FIG. 4B)) of roughly 26%. Also, the “unprenylated/total RAP1 (%)” value with Rap1 is recorded as 96%.
For `CC(C)=CCC/C(C)=C/CC/C(C)=C/CCC(=O)C(C)C` [Compound 101], the viability (as a rule, a read-out of living cells in per cent, often relative to untreated cells) at 1 µM in series [4] was 126%.
Turning to `CC(=O)CC/C=C(\C)CC/C=C(\C)CC/C=C(\C)CCC=C(C)C` [GGA, geranylgeranyl acetone], the time to peak (Tmax) (in general, the time from dosing to the highest level) in series [5] (setting [8]) was 9.33 h; in [5] (setting [9]) it was 8.66 h; in [5] (setting [10]), 7.33 h; in [5] (setting [11]), 13.3 h; in [5] (setting [12]), 5.33 h. Also, the bioavailability (usually dose-corrected exposure relative to a reference, in per cent) in [5] (setting [8]) is 35%; in [5] (setting [9]), 41.8%; in series [5] (setting [10]), 37.3%; in series [5] (setting [11]), 36.5%; in [5] (setting [12]), 58%. Besides, the half-life in [5] (setting [8]) is 1120 min; in series [5] (setting [9]) it was 188 min; in [5] (setting [10]), 206 min; in series [5] (setting [11]), 404 min; in [5] (setting [12]), 612 min. In series [6], the partition ratio (Kp) (commonly the ratio of the level in a tissue or fluid to that in plasma or blood) was in the range of 0.08 to 0.11. In series [7], the “concentration of GGA required to exert a cytoprotective effect” value was “more than 600 mg per kg per day”.
